In US6046177A, “Sulfoalkyl ether cyclodextrin based controlled release solid pharmaceutical formulations” (Cydex, Inc., priority 1999, dated 2000):

Assays:
[1] = glibomuride-β-cyclodextrin complex vs. physical mixture; cited from earlier work
[2] = Release of methylprednisolone from tablets with […] RS/RL coating without pore forming agent (FIG. 15); type: physicochemical; details: Eudragit RS:RL 9 to 1, approximately 5 wt.% coating
From the text: As previously mentioned, it is not required that a pharmaceutical formulation according to the invention comprise a coated core wherein the coat comprises a film forming agent and a pore forming agent. […] In this formulation, the coat comprises a combination of Eudragit™ RS and Eudragit™ RL in a 9 to 1 weight ratio and the coating on the core of the tablet comprises approximately 5 wt.% of the total weight of the tablet. Accordingly, the present invention also provides controlled release pharmaceutical formulations consisting essentially of a core surrounded by a coat which comprises a film forming agent wherein the coat controls the rate of delivery of the drug even absent a pore forming agent in the coating.
The above formulation was prepared by first reducing the particle size of the SBE7 -βCD with a wedgewood mortar and pestle and then passing the powder through a 100 mesh screen. The sodium stearyl fumarate was also sieved through a 100 mesh screen prior to use. The SBE7 -βCD and MP were blended together geometrically in a glass mortar. The CEOLUS™, SUPERTAB™, PRUV™ components were then added in order in sequential steps while mixing. Tablets weighing approximately 250 mg each were compressed by hand on a Stokes B2 tablet press using 7 mm standard cup concave toolings. The tablets were compressed to a hardness of approximately 14 kp. […]

[3] = In vitro release of methylprednisolone and SBE7 β-CD from tablets (USP apparatus II); type: physicochemical
Protocol: The MP and SBE7 β-CD (present in a 1:7 molar ratio) along with a pharmaceutical carrier were compressed into a solid core which was spray coated with a mixture of ethylcellulose, PEG3350, PEG400 and ethanol to form a 140 μm thick film coating around the solid core. The dissolution profile was determined using USP dissolution apparatus II (100 rpm, 37° C.) and an HPLC assay for methylprednisolone (MP). […] The first formulation, indicated in FIG. 1 by the hollow circles, contains the separately preformed MP-SBE7 β CD freeze-dried complex. The second formulation, indicated by the filled in circles, contains a major portion of uncomplexed MP as a physical mixture with SBE7 β-CD. The third formulation, indicate by the squares, contains a physical mixture of lactose, fructose and MP.
The tablet core was prepared with a 1/7 molar ratio of methylprednisolone/(SBE)7 -β-CD. This ratio was calculated using the previously determined binding constant in order to have sufficient (SBE)7 -β-CD in the tablet core to solubilize all the methylprednisolone present. […] The tablet core consisted of either the methylprednisolone-(SBE)7-β-CD complex or the physical mixture of the two compounds. The complex was prepared by freeze drying a methylprednisolone-(SBE)7 -β-CD solution (5-15% in (SBE)7-β-CD). Non (SBE)7 -β-CD containing tablets were also prepared. They consisted of a 1/7 ratio of methylprednisolone to a 50:50 (w/w) mixture of fructose and lactose (Fischer Scientific, N.J.). The mixtures were ground in a mortar and sieved through a 200 mesh (75 μm) screen under low humidity conditions. The mixtures were stored in a dessicator when not used. Tablets of around 150 mg were compressed into the dissolution die using a Carver Laboratory Press (Fred S. Carver Inc., N.J.) at 1 ton during 1 min.
The coating formulation was prepared by mixing 4.5% of ethylcellulose (Ethocel Standard 10 Premium, Dow Chemicals, Mich.) with an equivalent amount of poly(ethylene glycol) 3350 (PEG 3350, Sigma, MO). 0.9% of PEG 400 (Sigma, MO) and 90.1% of absolute ethanol were added to the mixture. The dispersion was shaken and sonicated until complete dissolution of the solid components. The coating solution was air sprayed (Airbrush, Paasche) on a Teflon surface under constant air flow (40° C.). At the end of the spraying, the membranes were dried under the 40° C. air flow for 5 min. They were then left at room temperature during 24 hours. The membranes were peeled off the Teflon surface, checked for cracks and flaws under a light microscope (X70) and their thickness was measured using a micrometer (Ames, Mass.). The membranes were then secured on the dissolution die containing the tablet, with the face which was sprayed on the Teflon in contact with the tablet surface.
The release studies were realized by placing the dissolution die in a USP dissolution apparatus II (Vanderkamp 600, VanKel Industries Inc.) containing 350 ml of water at 37° C., 100 rpm. Samples were collected at various time points. The 100% release was determined by removing the membrane from the die and allowing the drug dissolution to be complete.

[4] = Release of testosterone from osmotic pumps; type: physicochemical; details: osmotic pump with (SBE)7m -β-CD vs. sugar mixture or HP-β-CD; FIG. 25
Protocol: For the preparation of cores, physical mixtures of TS with (SBE)7m -β-CD, HP-β-CD or sugar (physical mixture of lactose and fructose, 1/1) each containing 10 mg TS were compressed at 1 ton/cm^2 for 60 sec using a Carver™ Laboratory Press with a 6.35 mm flat faced punch. The molar ratios of TS to (SBE)7m -β-CD in the physical mixtures ranged from 1:1 to 1:1.43 and that in the physical mixture with HP-β-CD ranged from 1:1 to 1:1.79. The physical mixtures of TS with the β-CD derivatives or sugar were prepared using a mortar and a pestle. The compressed tablet core was placed in a tablet die as described above. […]
The dissolution and release rates of TS from core tablets (no membrane covering) or the osmotic pump devices (core tablets covered by a semipermeable membrane) were measured using a USP apparatus utilizing the paddle method. […] The amount of each osmotic pump agent, (SBE)7m -β-CD, HP-β-CD and sugar, released from the OPT was calculated by difference from the weight of the total ingredients released and the weight of the remaining released components at each sampling time in the study. […] The weight of the released osmotic agent was measured as a residual weight after evaporating and vacuum drying a 200 ml solution sample for 12 hr at 60° C. […]

[5] = In vitro release of testosterone from tablets (USP apparatus II); type: physicochemical; details: 1:1 molar TST:SBE7 β-CD; sorbitol/PEG 400/cellulose acetate film; FIG. 8
Protocol: (FIG. 8) The solid core of the tablet comprised a 1:1 molar ratio of TST and SBE7 β-CD. The film coating of this tablet comprised sorbitol, PEG 400 and cellulose acetate. The release profiles of the physical mixture and complex formulation were compared to that of a baseline TST/fructose-lactose formulation.
The tablet core was prepared with a 1/1 molar ratio of testosterone/(SBE)7 -β-CD. The tablet core consisted of either the testosterone-(SBE)7 -β-CD complex or the physical mixture of the two compounds. The complex was prepared by freeze-drying a testosterone-(SBE)7 -β-CD solution (5-15% in (SBE)7m -β-CD). Non (SBE)7 -β-CD containing tablets were also prepared. […]
Semi-permeable Membrane Preparation The coating formulation was prepared by dissolving 1.0% of sorbitol (Sigma, MO) in 3.7% of double distilled water and 0.4% of PEG 400 (Sigma, MO). […] The membranes were peeled off the surface, checked for cracks and flaws under a light microscope (X70) and their thickness was measured using a Micrometer (Ames, Mass.). […]
The release studies were realized by placing the dissolution die in a USP dissolution apparatus II (Vanderkamp 600, VanKel Industries Inc.) containing 900 ml of water at 37° C., 100 rpm. […] The 100% release was determined by removing the membrane from the die and allowing the drug dissolution to be complete. The samples were analyzed by HPLC for testosterone concentration.

Cc1ccc(S(=O)(=O)NC(=O)NC2C3CCC(C)(C2O)C3(C)C)cc1 (stereo not shown) [glibomuride]
bioavailability of complex vs. physical mixture [1]: two to three fold better

C[C@H]1C[C@@H]2[C@H]([C@@H](O)C[C@@]3(C)[C@H]2CC[C@]3(O)C(=O)CO)[C@@]2(C)C=CC(=O)C=C12 [methylprednisolone]
release of MP, coat without pore forming agent [2]: MP is released from a tablet formulation | release profile, MP vs. SBE7 β-CD ([3]; 140 μm film, FIG. 2a, 2b): substantially the same release profiles | release profile, physical mixture vs. freeze dried complex ([3]; 200 μm film, FIG. 3a, 3b): a slight difference was noted in the release profiles of the physical mixture versus the freeze dried complex | release profile, physical mixture vs. preformed complex ([3]; MP:SBE7 β-CD 1:7 molar, 140 μm ethylcellulose/PEG film, FIG. 1, 2): release profile similar to or substantially similar to the former | effect of MP/SBE7 β-CD ratio on release ([3]; film coated tablets, ratios 1/10, 1/7, 1/3, FIG. 7a-7d): decreasing the relative amount of SBE7 β-CD decreases the observed release profile for MP | release profile, physical mixture vs. complex, uncoated core ([3]; no film, FIG. 6): The physical mixture exhibits substantially the same release profiles as the complex | release characteristics, physical mixture vs. freeze dried complex ([3]; ratios 1/10, 1/7, 1/3, FIG. 7a-7d): substantially the same release characteristics

C[C@]12CC[C@H]3[C@@H](CCC4=CC(=O)CC[C@@]43C)[C@@H]1CC[C@@H]2O [testosterone]
release from osmotic pumps [4]: released a greater amount of TS and at a more acceptable rate than the osmotic pumps containing the sugar mixture or HP-β-CD | release profile, physical mixture vs. freeze dried complex [5]: exhibited the same release profile as the respective freeze dried mixture
